# According to patent EP2398468B1, “PHARMACEUTICAL COMPOSITIONS COMPRISING PRASUGREL BASE OR ITS PHARMACEUTICALLY ACCEPTABLE ACID ADDITION SALTS AND PROCESSES FOR THEIR PREPARATION” (KRKA, D.D., Novo Mesto, priority 2009, dated 2010):
# Where a name gives a salt, the structure may show the parent alone. Read-outs that look alike come from different tables or passages of the source.
# Legend:
# [1] = Equilibrium solubility in aqueous solutions, shaking flask method for 24 hours; assay type: physicochemical; settings: for Solubility (mg/mL) at 37°C / Solubility (mg/mL) room temp / solubility at 24 h: 24 hours; for solubility at 24 h: thermodynamic from solid
# Description: The solubility of prasugrel base and some of its pharmaceutically acceptable salts in different dissolution media (in mg/mL) at room temperature and 37°C is given in Table 2. The equilibrium solubility of prasugrel base and some of its salts were checked in aqueous solutions at room temperature and 37 °C with shaking flask method for 24 hours (Heidoplh Incubator 1000, Unimax 1010). In comparison with prasugrel base, all salts are better soluble in lower pH values. In higher pH values the solubility decreases and at pH 6.8 the compound is slightly soluble to practically insoluble. […]
# [2] = physchem; assay type: physicochemical
structure (smiles),measurement,setting,value
CC(=O)Oc1cc2c(s1)CCN(C(C(=O)C1CC1)c1ccccc1F)C2 (stereo not shown) [Prasugrel hydroiodide],Solubility (mg/mL) at 37°C,"[1]; AGJ (without pepsin) pH 1.2, 37°C, hydroiodide",3.660 mg/mL
same,Solubility (mg/mL) room temp,"[1]; AGJ (without pepsin) pH 1.2, room temperature, hydroiodide",2.600 mg/mL
same,Solubility (mg/mL) at 37°C,"[1]; Acetate Buffer solution pH 4.0, 37°C, hydroiodide",0.166 mg/mL
same,Solubility (mg/mL) room temp,"[1]; Acetate Buffer solution pH 4.0, room temperature, hydroiodide",0.132 mg/mL
same,Solubility (mg/mL) at 37°C,"[1]; Phosphate Buffer solution pH 6.8, 37°C, hydroiodide",0.0018 mg/mL
same,Solubility (mg/mL) room temp,"[1]; Phosphate Buffer solution pH 6.8, room temperature, hydroiodide",0.00316 mg/mL
same,equilibrium solubility,[1]; compared with hydrochloride salt of prasugrel,comparable with solubility of hydrochloride salt of prasugrel
CC(=O)Oc1cc2c(s1)CCN(C(C(=O)C1CC1)c1ccccc1F)C2 (stereo not shown) [Prasugrel hydrochloride],Solubility (mg/mL) at 37°C,"[1]; AGJ (without pepsin) pH 1.2, 37°C, hydrochloride",4.43 mg/mL
same,Solubility (mg/mL) room temp,"[1]; AGJ (without pepsin) pH 1.2, room temperature, hydrochloride",5.00 mg/mL
same,Solubility (mg/mL) at 37°C,"[1]; Acetate Buffer solution pH 4.0, 37°C, hydrochloride",0.08 mg/mL
same,Solubility (mg/mL) room temp,"[1]; Acetate Buffer solution pH 4.0, room temperature, hydrochloride",0.07 mg/mL
"CC(=O)Oc1cc2c(s1)CCN(C(C(=O)C1CC1)c1ccccc1F)C2 (stereo not drawn) [Prasugrel base, 2-acetoxy-5-([alpha]-cyclopropylcarbonyl-2-fluorobenzyl)-4,5,6,7-tetrahydrothieno[3,2-c]pyridine]",Solubility (mg/mL) at 37°C,"[1]; AGJ (without pepsin) pH 1.2, 37°C",3.23 mg/mL
same,Solubility (mg/mL) room temp,"[1]; AGJ (without pepsin) pH 1.2, room temperature",1.54 mg/mL
same,Solubility (mg/mL) at 37°C,"[1]; Acetate Buffer solution pH 4.0, 37°C",0.03 mg/mL
same,Solubility (mg/mL) room temp,"[1]; Acetate Buffer solution pH 4.0, room temperature",0.03 mg/mL
same,pKa,[2],5.4
CC(=O)Oc1cc2c(s1)CCN(C(C(=O)C1CC1)c1ccccc1F)C2 (stereo not shown) [Prasugrel hydrobromide],solubility at 24 h,"[1]; AGJ (without pepsin) pH 1.2, 37 °C, pH 1.2, simulated gastric fluid, AGJ (without pepsin) pH 1.2, 37°C, read-out: Solubility (mg/mL) at 37°C",4.1 mg/mL
same,Solubility (mg/mL) room temp,"[1]; AGJ (without pepsin) pH 1.2, room temperature, hydrobromide",3.924 mg/mL
same,Solubility (mg/mL) at 37°C,"[1]; Acetate Buffer solution pH 4.0, 37°C, hydrobromide",0.153 mg/mL
same,Solubility (mg/mL) room temp,"[1]; Acetate Buffer solution pH 4.0, room temperature, hydrobromide",0.138 mg/mL
same,Solubility (mg/mL) at 37°C,"[1]; Phosphate Buffer solution pH 6.8, 37°C, hydrobromide",0.009 mg/mL
same,solubility at 24 h,"[1]; phosphate buffer solution pH 6.8, pH 6.8, aqueous buffer, Phosphate Buffer solution pH 6.8, room temperature, read-out: Solubility (mg/mL) room temp",0.003 mg/mL
